Laboratory results from ChEMBL document CHEMBL1781944, “The discovery of novel benzofuran-2-carboxylic acids as potent Pim-1 inhibitors” (Bioorg Med Chem Lett, 2011).
In brackets after ≈: the same amount, converted by molar mass. Activity calls are given as the source filed them. No cut-off for these calls is given here.

Experiments:
Cytochrome P450 1A2 = biological target: T1, Cytochrome P450 1A2 (Homo sapiens, UniProt P05177); test: Inhibition of CYP1A2 in human liver microsomes; assay type: ADME, Microsome
T1 sequence (P05177 whole entry): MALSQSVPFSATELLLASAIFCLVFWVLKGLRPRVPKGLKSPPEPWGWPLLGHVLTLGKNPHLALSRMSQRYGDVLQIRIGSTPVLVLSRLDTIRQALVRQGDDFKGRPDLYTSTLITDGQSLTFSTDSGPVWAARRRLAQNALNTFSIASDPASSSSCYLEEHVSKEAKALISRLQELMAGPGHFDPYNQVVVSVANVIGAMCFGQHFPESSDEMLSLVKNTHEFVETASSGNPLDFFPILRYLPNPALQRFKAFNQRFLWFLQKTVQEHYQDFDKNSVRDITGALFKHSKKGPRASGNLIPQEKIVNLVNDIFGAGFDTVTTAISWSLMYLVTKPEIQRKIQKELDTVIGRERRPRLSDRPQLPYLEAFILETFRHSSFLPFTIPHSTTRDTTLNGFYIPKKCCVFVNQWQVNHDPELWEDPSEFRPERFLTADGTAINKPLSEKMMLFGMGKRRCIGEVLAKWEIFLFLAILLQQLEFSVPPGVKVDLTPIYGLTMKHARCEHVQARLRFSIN

[1] = Intrinsic clearance in rat liver microsomes; assay type: ADME, Microsome
[2] = Solubility of the compound in phosphate buffered saline buffer at pH 7.4; assay type: physicochemical
Cytochrome P450 2C9 = Cytochrome P450 2C9 (Homo sapiens, UniProt P11712); test: Inhibition of CYP2C9 in human liver microsomes; assay type: ADME, Microsome
Chain of Cytochrome P450 2C9 (P11712 whole entry): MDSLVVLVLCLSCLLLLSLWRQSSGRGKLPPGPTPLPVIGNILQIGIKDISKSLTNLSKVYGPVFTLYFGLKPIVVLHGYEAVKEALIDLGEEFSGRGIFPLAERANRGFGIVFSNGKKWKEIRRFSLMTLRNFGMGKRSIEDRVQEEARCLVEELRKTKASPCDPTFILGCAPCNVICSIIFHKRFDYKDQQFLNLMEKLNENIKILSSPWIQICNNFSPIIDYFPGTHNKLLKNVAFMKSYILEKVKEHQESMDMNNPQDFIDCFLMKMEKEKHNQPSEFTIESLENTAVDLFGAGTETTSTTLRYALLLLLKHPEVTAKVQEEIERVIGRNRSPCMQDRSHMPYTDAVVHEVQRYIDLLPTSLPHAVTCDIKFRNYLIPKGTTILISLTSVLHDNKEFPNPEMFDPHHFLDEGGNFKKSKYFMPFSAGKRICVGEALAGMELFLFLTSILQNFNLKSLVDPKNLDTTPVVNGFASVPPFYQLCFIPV

Cytochrome P450 3A4 = Cytochrome P450 3A4 (Homo sapiens, UniProt P08684); test: Inhibition of CYP3A4 in human liver microsomes; assay type: ADME, Microsome
Chain of Cytochrome P450 3A4 (P08684 whole entry): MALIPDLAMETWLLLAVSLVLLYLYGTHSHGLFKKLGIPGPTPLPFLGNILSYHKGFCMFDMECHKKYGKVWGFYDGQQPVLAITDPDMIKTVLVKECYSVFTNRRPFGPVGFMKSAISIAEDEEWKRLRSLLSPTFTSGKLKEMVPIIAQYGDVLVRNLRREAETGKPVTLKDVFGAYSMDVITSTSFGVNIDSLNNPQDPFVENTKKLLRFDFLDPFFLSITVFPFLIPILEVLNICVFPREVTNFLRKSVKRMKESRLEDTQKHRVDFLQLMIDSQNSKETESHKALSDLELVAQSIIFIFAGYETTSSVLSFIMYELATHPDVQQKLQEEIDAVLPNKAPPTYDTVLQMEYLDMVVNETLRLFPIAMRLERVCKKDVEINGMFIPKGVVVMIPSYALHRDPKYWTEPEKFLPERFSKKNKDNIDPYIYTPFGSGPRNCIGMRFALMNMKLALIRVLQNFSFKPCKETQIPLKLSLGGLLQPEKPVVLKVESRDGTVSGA

[3] = biological target: Serine/threonine-protein kinase pim-2 (Homo sapiens, UniProt Q9P1W9)
Chain of Serine/threonine-protein kinase pim-2 (Q9P1W9 whole entry): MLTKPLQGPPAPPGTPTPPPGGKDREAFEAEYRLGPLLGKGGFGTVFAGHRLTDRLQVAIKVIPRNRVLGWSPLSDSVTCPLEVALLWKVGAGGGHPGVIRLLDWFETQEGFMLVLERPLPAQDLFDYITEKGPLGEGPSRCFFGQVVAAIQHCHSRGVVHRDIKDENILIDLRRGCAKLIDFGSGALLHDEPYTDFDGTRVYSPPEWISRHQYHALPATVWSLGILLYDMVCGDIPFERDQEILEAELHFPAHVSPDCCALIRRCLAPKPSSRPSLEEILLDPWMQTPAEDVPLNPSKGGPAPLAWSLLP

Cytochrome P450 2C19 = Cytochrome P450 2C19 (Homo sapiens, UniProt P33261); test: Inhibition of CYP2C19 in human liver microsomes; assay type: ADME, Microsome
Chain of Cytochrome P450 2C19 (P33261 whole entry): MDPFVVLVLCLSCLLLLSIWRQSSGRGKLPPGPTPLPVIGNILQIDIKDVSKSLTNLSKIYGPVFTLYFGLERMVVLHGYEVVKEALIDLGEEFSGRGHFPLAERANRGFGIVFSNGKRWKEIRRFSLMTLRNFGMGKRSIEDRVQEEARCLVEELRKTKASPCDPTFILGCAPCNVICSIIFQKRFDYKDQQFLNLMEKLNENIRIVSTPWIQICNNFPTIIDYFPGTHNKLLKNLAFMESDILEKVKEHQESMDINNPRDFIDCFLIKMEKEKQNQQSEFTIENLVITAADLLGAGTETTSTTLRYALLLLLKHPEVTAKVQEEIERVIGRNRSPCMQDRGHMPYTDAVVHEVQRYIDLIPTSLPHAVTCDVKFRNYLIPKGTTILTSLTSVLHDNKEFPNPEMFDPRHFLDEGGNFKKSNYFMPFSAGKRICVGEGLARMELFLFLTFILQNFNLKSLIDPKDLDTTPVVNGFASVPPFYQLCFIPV

Cytochrome P450 2D6 = Cytochrome P450 2D6 (Homo sapiens, UniProt P10635); test: Inhibition of CYP2D6 in human liver microsomes; assay type: ADME, Microsome
Chain of Cytochrome P450 2D6 (P10635 whole entry): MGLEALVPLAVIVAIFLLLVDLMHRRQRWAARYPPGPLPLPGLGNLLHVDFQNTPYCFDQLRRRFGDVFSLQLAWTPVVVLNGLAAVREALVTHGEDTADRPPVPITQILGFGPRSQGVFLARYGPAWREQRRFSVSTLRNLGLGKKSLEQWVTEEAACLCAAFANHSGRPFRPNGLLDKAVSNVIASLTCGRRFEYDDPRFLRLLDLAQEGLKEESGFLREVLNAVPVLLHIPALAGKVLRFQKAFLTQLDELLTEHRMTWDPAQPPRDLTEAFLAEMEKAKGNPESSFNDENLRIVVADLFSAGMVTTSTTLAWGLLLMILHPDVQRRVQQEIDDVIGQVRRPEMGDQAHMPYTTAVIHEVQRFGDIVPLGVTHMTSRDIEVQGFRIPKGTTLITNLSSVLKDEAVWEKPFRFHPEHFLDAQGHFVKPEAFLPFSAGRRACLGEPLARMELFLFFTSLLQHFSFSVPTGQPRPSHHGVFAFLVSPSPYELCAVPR

in vitro = settings: human, liver microsomes
[4] = biological target: T2, Serine/threonine-protein kinase pim-1 (Homo sapiens, UniProt P11309)
Target sequence in this assay (P11309 whole entry): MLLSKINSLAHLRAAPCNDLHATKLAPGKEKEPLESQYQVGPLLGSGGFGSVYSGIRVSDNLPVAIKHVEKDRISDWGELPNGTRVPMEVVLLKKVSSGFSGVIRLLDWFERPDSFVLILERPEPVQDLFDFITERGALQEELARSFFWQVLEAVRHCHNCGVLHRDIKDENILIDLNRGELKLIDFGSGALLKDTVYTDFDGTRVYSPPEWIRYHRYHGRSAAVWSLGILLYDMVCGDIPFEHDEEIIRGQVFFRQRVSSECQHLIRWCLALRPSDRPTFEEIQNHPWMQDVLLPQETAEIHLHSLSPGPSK

[5] = biological target: T2, Serine/threonine-protein kinase pim-1; settings: 25 uM
Target sequence in this assay (P11309 whole entry, looked up): as the sequence (P11309 whole entry) above

IC50 [3] [nM] | IC50 [4] [nM] | Compound | further results
66 | – | N[C@H]1CC[C@H](Nc2cc(Br)cc3cc(C(=O)O)oc23)CC1 | IC50 (Cytochrome P450 1A2): > 10000 nM; microsomal CLint [1]: 8.1 µL/min/mg; solubility [2]: > 58 µg/mL; IC50 (Cytochrome P450 2C9): > 10000 nM; IC50 (Cytochrome P450 3A4): > 10000 nM; IC50 (Cytochrome P450 2C19): > 10000 nM; IC50 (Cytochrome P450 2D6): > 10000 nM; microsomal CLint (in vitro): 11.2 µL/min/mg
54 | – | N[C@H]1CC[C@H](Nc2cncc(-c3ccc4oc(C(=O)O)cc4c3)n2)CC1 | –
– | 119000 | O=C(O)c1cc2ccccc2o1 | –
6800 | 2300 | O=C(O)c1cc2cc(Br)cc(N[C@H]3CC[C@@H](O)CC3)c2o1 | –
260 | 150 | O=C(O)c1cc2cc(Br)cc(NC(=O)C3CCNCC3)c2o1 | –
350 | 71 | O=C(O)c1cc2cc(Br)cc(OCC3CCCNC3)c2o1 (configuration not stated) | –
6100 | 2400 | O=C(O)c1cc2cc(Br)cc(N[C@H]3CC[C@H](O)CC3)c2o1 | –
21100 | 4500 | O=C(O)c1cc2cc(Br)cc(OCCc3ccncc3)c2o1 | –
350 | 51 | O=C(O)c1cc2cc(Br)cc(OCCC3CCNCC3)c2o1 | –
7000 | 980 | O=C(O)c1cc2cc(Br)cc(C(=O)NC3CCNCC3)c2o1 | –
– | 6100 | O=C(O)c1cc2cc(OC(F)(F)F)ccc2o1 | –
21 | 53 | NC[C@H]1CC[C@H](Nc2cncc(-c3ccc4oc(C(=O)O)cc4c3)n2)CC1 | –
250 | 60 | O=C(O)c1cc2cc(Br)cc(OCC3CCNCC3)c2o1 | –
100 | 450 | O=C(O)c1cc2cc(-c3cncc(NC4CNC4)n3)ccc2o1 | –
150 | 210 | O=C(O)c1cc2cc(-c3cncc(NC4CCNCC4)n3)ccc2o1 | –
12500 | 4900 | O=C(O)c1cc2cc(Br)cc(OCc3ccncc3)c2o1 | –

IC50 [3] [nM] | IC50 [4] [nM] | Compound | further results
– | – | COc1cc(Br)cc2cc(C#N)oc12 | inhibition [5]: inactive
1300 | 220 | O=C(O)c1cc2cc(Br)cc(OCC(=O)N3CCNCC3)c2o1 | –
11900 | 7400 | O=C(O)c1cc2cc(-c3cnccn3)ccc2o1 | –
4 | – | N[C@H]1CC[C@@H](Nc2cc(Br)cc3cc(C(=O)O)oc23)CC1 | IC50 (Cytochrome P450 1A2): > 10000 nM; microsomal CLint [1]: 10 µL/min/mg; solubility [2]: 20.1 µg/mL (≈ 56.9 µM); IC50 (Cytochrome P450 2C9): > 10000 nM; IC50 (Cytochrome P450 3A4): > 10000 nM; IC50 (Cytochrome P450 2C19): > 10000 nM; IC50 (Cytochrome P450 2D6): > 10000 nM; microsomal CLint (in vitro): 10.2 µL/min/mg
2900 | 5400 | Cn1cc(-c2ccc3oc(C(=O)O)cc3c2)cn1 | –
110 | 200 | N[C@H]1CC[C@@H](Nc2cncc(-c3ccc4oc(C(=O)O)cc4c3)n2)CC1 | –
1200 | 1900 | NCCCCNc1ccnc(-c2ccc3oc(C(=O)O)cc3c2)n1 | –
7100 | 7800 | O=C(O)c1cc2cc(-c3cccnc3)ccc2o1 | –
340 | 55 | O=C(CC1CCNCC1)Nc1cc(Br)cc2cc(C(=O)O)oc12 | –
1300 | 2700 | O=C(O)c1cc2cc(Br)cc(C(=O)NCC3CCNCC3)c2o1 | –
590 | 460 | NCCCCNc1nccc(-c2ccc3oc(C(=O)O)cc3c2)n1 | –
13500 | 5300 | O=C(O)c1cc2cc(C(F)(F)F)ccc2o1 | –
160 | 380 | O=C(O)c1cc2cc(-c3cncc(NCC4CCNCC4)n3)ccc2o1 | –
540 | 40 | O=C(O)c1cc2cc(Br)cc(NCCC3CCNCC3)c2o1 | –
190 | 20 | O=C(O)c1cc2cc(Br)cc(NCC3CCNCC3)c2o1 | IC50 (Cytochrome P450 1A2): > 10000 nM; microsomal CLint [1]: 14.1 µL/min/mg; solubility [2]: > 58 µg/mL; IC50 (Cytochrome P450 2C9): > 10000 nM; IC50 (Cytochrome P450 3A4): > 10000 nM; IC50 (Cytochrome P450 2C19): > 10000 nM; IC50 (Cytochrome P450 2D6): > 10000 nM; microsomal CLint (in vitro): 9.9 µL/min/mg
5800 | 6000 | O=C(O)c1cc2cc(-c3cnn(C4CCNCC4)c3)ccc2o1 | –
